Measurements reported in ChEMBL document CHEMBL1140251, “Rhodanine derivatives as inhibitors of JSP-1” (Bioorg Med Chem Lett, 2005).

Key:
[1] = molecular target: Dual specificity protein phosphatase 3 (Homo sapiens, UniProt P51452); assay: In vitro inhibitory concentration against VH1-related (VHR) phosphatase
[2] = molecular target: T1, Dual specificity protein phosphatase 22 (Homo sapiens, UniProt Q9NRW4); assay: Inhibition of JNK-stimulating phosphatase-1 (JSP-1)
T1 sequence (Q9NRW4 whole entry): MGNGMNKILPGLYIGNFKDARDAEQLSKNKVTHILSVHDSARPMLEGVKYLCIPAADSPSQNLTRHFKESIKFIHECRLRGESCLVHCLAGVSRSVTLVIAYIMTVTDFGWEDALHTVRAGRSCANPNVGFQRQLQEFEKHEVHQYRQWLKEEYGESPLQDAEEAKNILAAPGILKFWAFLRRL

Chain of Dual specificity protein phosphatase 3 (P51452 whole entry): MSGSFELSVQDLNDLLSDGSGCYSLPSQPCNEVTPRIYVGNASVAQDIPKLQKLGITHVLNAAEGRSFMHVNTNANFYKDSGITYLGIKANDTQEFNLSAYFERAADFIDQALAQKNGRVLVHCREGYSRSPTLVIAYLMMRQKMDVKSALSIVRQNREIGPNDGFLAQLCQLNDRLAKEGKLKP

Compound	IC50 [1] [µM]	IC50 [2] [µM]
O=C1/C(=C/c2ccccc2)SC(=S)N1c1ccc(CP(=O)(O)O)cc1	> 200	10
O=C(O)Cc1cccc(N2C(=O)/C(=C/c3ccccc3)SC2=S)c1	> 200	20
O=C1/C(=C/c2ccccc2)SC(=S)N1c1ccc(S(=O)(=O)O)cc1	> 200	11
Cc1cc(C(=O)O)ccc1N1C(=O)/C(=C/c2ccccc2)SC1=S	> 200	66
O=C(O)c1ccc(N2C(=O)/C(=C/c3ccc(F)cc3)OC2=S)cc1		> 200
COc1ccc(/C=C2\SC(=S)N(c3cccc(C(=O)O)c3)C2=O)cc1	> 200	26
O=C(O)c1ccc(N2C(=O)/C(=C/c3ccc(F)cc3)NC2=S)cc1		> 200
O=C(O)c1ccc(N2C(=O)S/C(=C\c3ccc(F)cc3)C2=O)cc1		> 200
O=C(O)c1ccccc1N1C(=O)/C(=C/c2ccccc2)SC1=S	> 200	> 200
Cc1ccc(/C=C2\SC(=S)N(c3cccc(C(=O)O)c3)C2=O)cc1	123	16
O=C(O)c1cc(C(=O)O)cc(N2C(=O)/C(=C/c3ccccc3)SC2=S)c1	> 200	103
O=C(O)c1ccc(N2C(=O)/C(=C/c3ccccc3)SC2=S)cc1O	45	13
O=C(O)c1ccc(/C=C2\SC(=S)N(c3cccc(C(=O)O)c3)C2=O)cc1	> 200	> 200
O=C(O)c1ccc(N2C(=O)/C(=C/c3ccccc3)SC2=S)cc1	> 200	18
O=C(O)c1cccc(N2C(=O)/C(=C/c3ccc(O)cc3)SC2=S)c1	> 200	157
O=C(O)c1ccc(N2C(=O)/C(=C/c3ccc(F)cc3)SC2=S)cc1		4.2
O=C(O)c1cc(N2C(=O)/C(=C/c3ccccc3)SC2=S)ccc1O	130	13
CN1C(=S)N(c2ccc(C(=O)O)cc2)C(=O)/C1=C/c1ccc(F)cc1		> 200
CC/C=C1\SC(=S)N(c2cccc(C(=O)O)c2)C1=O	> 200	59
O=C(O)c1cccc(N2C(=O)/C(=C/C3CCCCC3)SC2=S)c1	> 200	7.3
O=C(O)Cc1ccc(N2C(=O)/C(=C/c3ccccc3)SC2=S)cc1	100	20
O=C1/C(=C/c2ccccc2)SC(=S)N1c1ccccc1		> 200
COC(=O)c1ccc(N2C(=O)/C(=C/c3ccccc3)SC2=S)cc1		> 200
O=C(O)c1ccc(CN2C(=O)/C(=C/c3ccccc3)SC2=S)cc1	> 200	60
O=C(O)c1cccc(N2C(=O)/C(=C/c3ccc(F)cc3)SC2=S)c1	> 50	1.3
O=C(O)c1cccc(N2C(=O)/C(=C/c3ccc([N+](=O)[O-])cc3)SC2=S)c1	> 50	2.6
O=C(O)c1cccc(N2C(=O)/C(=C/c3ccccc3)SC2=S)c1 (stereo in doubt; 5m)	> 100	6.6
O=C(O)c1cccc(N2C(=O)/C(=C/c3ccccc3)SC2=S)c1 (stereo in doubt; 5t)	> 100	7
